Experimental data taken from PubChem BioAssay AID254 (DTP/NCI, 2004).
“And” between values parts separate entries of the source, which are not always exact repeats. Equal values may be shown once. Toxic doses and inconclusive results are not listed.

Test system: L1210 leukemia iv in BDF1 mice, survival T/C
Assay: NCI In Vivo Anticancer Drug Screen. Data for tumor model L1210 Leukemia (intravenous) in B6D2F1 (BDF1) mice
Settings: higher = longer survival
Method: The antitumor activity of compounds was measured in mice bearing transplantable tumors. Survival or tumor size were measured and the results are expressed as the measurement made in the treated group (T) divided by the measurement made in the vehicle treated control group (C). The tumor model used in this assay is L1210 Leukemia (intravenous) in B6D2F1 (BDF1) mice

[1] = endpoint: mean survival time, dose: 22.0 mg/kg/injection, schedule: Q01DX001 (ip), vehicle: other
[2] = endpoint: mean survival time, dose: 45.0 mg/kg/injection, schedule: Q01DX001 (ip), vehicle: other

Structure (SMILES): O=NN(CCCl)C(=O)NC1C2CC3CC(C2)CC1C3 (configuration not stated)
- T/C [1]: 107 % of control and 118 % of control
- T/C [2]: 160 % of control
- T/C (endpoint: mean survival time, dose: 91.0 mg/kg/injection, schedule: Q01DX001 (ip), vehicle: other): 156 % of control
- T/C (endpoint: mean survival time, dose: 181.0 mg/kg/injection, schedule: Q01DX001 (ip), vehicle: other): 166 % of control and 229 % of control
- T/C (endpoint: mean survival time, dose: 362.0 mg/kg/injection, schedule: Q01DX001 (ip), vehicle: other): 440 % of control and 514 % of control

Structure (SMILES): NC(=S)N/N=C/c1ccccn1
- T/C (endpoint: mean survival time, dose: 5.0 mg/kg/injection, schedule: Q01HX008 (ip), vehicle: other): 105 % of control
- T/C (endpoint: mean survival time, dose: 5.0 mg/kg/injection, schedule: Q03HX008 (ip), vehicle: other): 166 % of control
- T/C (endpoint: mean survival time, dose: 8.0 mg/kg/injection, schedule: Q01DX008 (ip), vehicle: other): 176 % of control
- T/C (endpoint: mean survival time, dose: 8.0 mg/kg/injection, schedule: Q03HX008 (ip), vehicle: other): 208 % of control
- T/C (endpoint: mean survival time, dose: 8.0 mg/kg/injection, schedule: Q06HX008 (ip), vehicle: other): 176 % of control
- T/C (endpoint: mean survival time, dose: 8.0 mg/kg/injection, schedule: Q12HX008 (ip), vehicle: other): 200 % of control
- T/C [1]: 111 % of control
- T/C (endpoint: mean survival time, dose: 33.0 mg/kg/injection, schedule: Q01DX001 (ip), vehicle: other): 110 % of control

Structure (SMILES): Nc1nc(=S)c2[nH]cnc2[nH]1
- T/C (endpoint: mean survival time, dose: 0.4 mg/kg/injection, schedule: Q01DX008 (ip), vehicle: alkali diluted with saline): 107 % of control
- T/C (endpoint: mean survival time, dose: 0.4 mg/kg/injection, schedule: Q06HX008 (ip), vehicle: alkali diluted with saline): 117 % of control
- T/C (endpoint: mean survival time, dose: 0.4 mg/kg/injection, schedule: Q12HX008 (ip), vehicle: alkali diluted with saline): 114 % of control
- T/C (endpoint: mean survival time, dose: 0.6 mg/kg/injection, schedule: Q01DX008 (ip), vehicle: alkali diluted with saline): 114 % of control
- T/C (endpoint: mean survival time, dose: 0.6 mg/kg/injection, schedule: Q01HX008 (ip), vehicle: alkali diluted with saline): 152 % of control
- T/C (endpoint: mean survival time, dose: 4.8 mg/kg/injection, schedule: Q01DX001 (ip), vehicle: alkali diluted with saline): 156 % of control
- T/C (endpoint: mean survival time, dose: 115.0 mg/kg/injection, schedule: Q01DX001 (ip), vehicle: alkali diluted with saline): 195 % of control
- T/C (endpoint: median survival time, dose: 20.0 mg/kg/injection, schedule: Q04DX002 (ip), vehicle: alkali diluted with saline): 206 % of control and 227 % of control
- T/C (endpoint: median survival time, dose: 25.0 mg/kg/injection, schedule: Q04DX002 (ip), vehicle: alkali diluted with saline): 198 % of control and 231 % of control

Structure (SMILES): CC(=O)OC1CCC(NC(=O)N(CCF)N=O)CC1 (configuration not stated)
- T/C (endpoint: mean survival time, dose: 16.0 mg/kg/injection, schedule: Q01DX001 (ip), vehicle: other): 175 % of control
- T/C (endpoint: mean survival time, dose: 24.0 mg/kg/injection, schedule: Q01DX001 (ip), vehicle: other): 248 % of control
- T/C (endpoint: mean survival time, dose: 32.0 mg/kg/injection, schedule: Q01DX001 (oral), vehicle: other): 441 % of control
- T/C (endpoint: mean survival time, dose: 36.0 mg/kg/injection, schedule: Q01DX001 (ip), vehicle: other): 473 % of control

Structure (SMILES): O=NN(CCCl)C(=O)N[C@H]1CCCC[C@@H]1Cl
- T/C (endpoint: mean survival time, dose: 5.0 mg/kg/injection, schedule: Q01DX001 (ip), vehicle: other): 108 % of control and 121 % of control
- T/C (endpoint: mean survival time, dose: 15.0 mg/kg/injection, schedule: Q01DX001 (ip), vehicle: other): 153 % of control and 160 % of control
- T/C (endpoint: mean survival time, dose: 20.0 mg/kg/injection, schedule: Q04DX004 (ip), vehicle: other): 319 % of control
- T/C (endpoint: mean survival time, dose: 30.0 mg/kg/injection, schedule: Q01DX001 (ip), vehicle: other): 514 % of control
- T/C (endpoint: mean survival time, dose: 30.0 mg/kg/injection, schedule: Q04DX004 (ip), vehicle: other): 95 % of control
- T/C (endpoint: mean survival time, dose: 41.0 mg/kg/injection, schedule: Q01DX001 (ip), vehicle: other): 558 % of control and 564 % of control
- T/C [2]: 819 % of control
- T/C (endpoint: mean survival time, dose: 45.0 mg/kg/injection, schedule: Q04DX004 (ip), vehicle: other): 512 % of control
- T/C (endpoint: mean survival time, dose: 75.0 mg/kg/injection, schedule: Q01DX001 (ip), vehicle: other): 583 % of control and 650 % of control and 652 % of control
- T/C (endpoint: mean survival time, dose: 83.0 mg/kg/injection, schedule: Q01DX001 (ip), vehicle: other): 376 % of control and 553 % of control
- T/C (endpoint: mean survival time, dose: 90.0 mg/kg/injection, schedule: Q01DX001 (ip), vehicle: other): 460 % of control

Structure (SMILES): CC(CN1CC(=O)NC(=O)C1)N1CC(=O)NC(=O)C1 (configuration not stated)
- T/C (endpoint: mean survival time, dose: 108.0 mg/kg/injection, schedule: Q04DX003 (ip), vehicle: Klucel (hydroxypropylcellulose) (HPC)): 165 % of control
- T/C (endpoint: mean survival time, dose: 180.0 mg/kg/injection, schedule: Q04DX003 (ip), vehicle: Klucel (hydroxypropylcellulose) (HPC)): 176 % of control
- T/C (endpoint: mean survival time, dose: 300.0 mg/kg/injection, schedule: Q04DX003 (ip), vehicle: Klucel (hydroxypropylcellulose) (HPC)): 191 % of control

Structure (SMILES): O=c1[nH]cc(F)c(=O)[nH]1
- T/C (endpoint: mean survival time, dose: 10.0 mg/kg/injection, schedule: Q01DX005 (ip), vehicle: saline): 109 % of control
- T/C (endpoint: mean survival time, dose: 20.0 mg/kg/injection, schedule: Q01DX005 (ip), vehicle: saline): 120 % of control
- T/C (endpoint: mean survival time, dose: 40.0 mg/kg/injection, schedule: Q01DX005 (ip), vehicle: saline): 152 % of control
- T/C (endpoint: mean survival time, dose: 50.0 mg/kg/injection, schedule: Q01DX005 (ip), vehicle: saline): 183 % of control
- T/C (endpoint: mean survival time, dose: 60.0 mg/kg/injection, schedule: Q01DX005 (ip), vehicle: saline): 182 % of control and 186 % of control
- T/C (endpoint: mean survival time, dose: 120.0 mg/kg/injection, schedule: Q01DX001 (ip), vehicle: water): 150 % of control
- T/C (endpoint: mean survival time, dose: 150.0 mg/kg/injection, schedule: Q01DX001 (ip), vehicle: water): 154 % of control
- T/C (endpoint: mean survival time, dose: 180.0 mg/kg/injection, schedule: Q01DX001 (ip), vehicle: water): 180 % of control

Structure (SMILES): O=NN(CCCl)C(=O)NC1CCCC1
- T/C (endpoint: mean survival time, dose: 9.0 mg/kg/injection, schedule: Q01DX001 (ip), vehicle: saline): 106 % of control and 100 % of control
- T/C (endpoint: mean survival time, dose: 19.0 mg/kg/injection, schedule: Q01DX001 (ip), vehicle: saline): 114 % of control and 119 % of control
- T/C (endpoint: mean survival time, dose: 38.0 mg/kg/injection, schedule: Q01DX001 (ip), vehicle: saline): 160 % of control and 182 % of control
- T/C (endpoint: mean survival time, dose: 75.0 mg/kg/injection, schedule: Q01DX001 (ip), vehicle: saline): 174 % of control and 202 % of control
- T/C (endpoint: mean survival time, dose: 150.0 mg/kg/injection, schedule: Q01DX001 (ip), vehicle: saline): 212 % of control and 265 % of control

Structure (SMILES): COc1cc([C@@H]2c3cc4c(cc3[C@@H](OC3OC5COC(C)OC5C(O)C3O)[C@H]3COC(=O)[C@H]23)OCO4)cc(OC)c1O (some centres not stated)
- T/C (endpoint: mean survival time, dose: 12.0 mg/kg/injection, schedule: Q04DX003 (ip), vehicle: saline): 117 % of control
- T/C (endpoint: mean survival time, dose: 40.0 mg/kg/injection, schedule: Q04DX003 (ip), vehicle: saline): 297 % of control
- T/C (endpoint: mean survival time, dose: 60.0 mg/kg/injection, schedule: Q04DX003 (ip), vehicle: saline): 447 % of control

Structure (SMILES): CN(C)/N=N/c1nc[nH]c1C(N)=O
- T/C (endpoint: mean survival time, dose: 42.0 mg/kg/injection, schedule: Q01DX001 (ip), vehicle: carboxymethylcellulose (CMC)): 85 % of control and 86 % of control
- T/C (endpoint: mean survival time, dose: 83.0 mg/kg/injection, schedule: Q01DX001 (ip), vehicle: carboxymethylcellulose (CMC)): 97 % of control and 98 % of control
- T/C (endpoint: mean survival time, dose: 170.0 mg/kg/injection, schedule: Q01DX001 (ip), vehicle: carboxymethylcellulose (CMC)): 114 % of control and 115 % of control
- T/C (endpoint: mean survival time, dose: 180.0 mg/kg/injection, schedule: Q01DX001 (ip), vehicle: carboxymethylcellulose (CMC)): 113 % of control
- T/C (endpoint: mean survival time, dose: 600.0 mg/kg/injection, schedule: Q01DX001 (ip), vehicle: carboxymethylcellulose (CMC)): 161 % of control
- T/C (endpoint: mean survival time, dose: 900.0 mg/kg/injection, schedule: Q01DX001 (ip), vehicle: carboxymethylcellulose (CMC)): 193 % of control
- T/C (endpoint: mean survival time, dose: 1012.0 mg/kg/injection, schedule: Q01DX001 (ip), vehicle: carboxymethylcellulose (CMC)): 183 % of control and 184 % of control
- T/C (endpoint: mean survival time, dose: 1350.0 mg/kg/injection, schedule: Q01DX001 (ip), vehicle: carboxymethylcellulose (CMC)): 113 % of control

Structure (SMILES): COc1cccc2c1C(=O)c1c(O)c3c(c(O)c1C2=O)CC(O)(C(=O)CO)CC3OC1CC(N)C(O)C(C)O1 (configuration not stated)
- T/C (endpoint: mean survival time, dose: 0.75 mg/kg/injection, schedule: Q01DX005 (iv), vehicle: saline): 104 % of control
- T/C (endpoint: mean survival time, dose: 1.5 mg/kg/injection, schedule: Q01DX005 (iv), vehicle: saline): 103 % of control
- T/C (endpoint: mean survival time, dose: 3.0 mg/kg/injection, schedule: Q01DX005 (iv), vehicle: saline): 117 % of control
- T/C (endpoint: mean survival time, dose: 4.0 mg/kg/injection, schedule: Q01DX005 (iv), vehicle: saline): 105 % of control
- T/C (endpoint: mean survival time, dose: 5.0 mg/kg/injection, schedule: Q01DX005 (iv), vehicle: saline): 89 % of control
- T/C (endpoint: mean survival time, dose: 6.0 mg/kg/injection, schedule: Q01DX005 (iv), vehicle: saline): 97 % of control
- T/C (endpoint: mean survival time, dose: 7.0 mg/kg/injection, schedule: Q01DX005 (iv), vehicle: saline): 96 % of control
- T/C (endpoint: mean survival time, dose: 8.0 mg/kg/injection, schedule: Q01DX005 (iv), vehicle: saline): 90 % of control
